{"source": "patent US9573920B2", "about": "“Compound, medicine, anti-inflammatory, cosmetic, food and drink, and method for producing compound” (Amino Up Chemical Co., Ltd., priority 2013, dated 2017)", "key": {"[1]": {"tested_on": "nitrogen monoxide (NO) production due to IL-1β", "test": "NO production inhibitory action in IL-1β-stimulated rat liver cells (Griess method)", "assay_type": "cell-based", "details": "IL-1β 1 nM, 8 hours; for IC50: nitrite by Griess method, read-out: IC50 value (drug concentration at NO production of 50%)", "experimental": "Liver cells were isolated from male Wistar rats (200 to 250 g, Charles River) by a collagenase perfusion method (collagenase: Wako Pure Chemicals). The isolated liver cells were suspended in a medium at 6×10^5 cells/mL, seeded in 35 mm plastic dishes (Falcon Plastic) (2 mL/dish), and cultured in an incubator with 5% CO2 at 37° C. Williams' Medium E (WE) containing 10% newborn calf serum, HEPES (5 mM), penicillin (100 U/mL), streptomycin (0.1 mg/mL), dexamethasone (10 nM), and insulin (10 nM) was used as the medium. After 5 hours, the medium was replaced with fresh WE free of any serum and hormone, and the cells were cultured overnight until before use of the cells for an experiment.\nOn day 1 after the start of the culture, cells were subjected to replacement with fresh WE free of any serum and hormone, and recombinant rat IL-1β (purity of 97% or more) (PeproTech, Rocky Hill, N.J., USA), and Pa5 extracted with methanol in Example 1 or negletein in the comparative example were added to the medium. In each medium, the concentration of IL-1β was 1 nM, the concentrations of Pa5 were 5, 10, and 20 μM, and the concentrations of negletein were 10, 20, and 40 μM (FIG. 1). The amount of NO in each medium was measured 8 hours after the addition of IL-1β, and Pa5 or negletein by a Griess method (Green L C et al, Anal Biochem 1982; 126: 131-138). More specifically, the amount of nitrite (stable metabolite of NO) in each medium was measured.\nLiver cells originated from rats were cultured in like manner with Example 4. On day 1 after the start of the culture, the cells were subjected to replacement with fresh WE free of any serum and hormone, and recombinant rat IL-1β (similar to that in Example 4) and Pa9 extracted with methanol in Example 3 were added to the medium. In each medium, the concentration of IL-1β was 1 nM, and the concentrations of Pa9 were 10 μM, 50 μM, and 100 μM (FIG. 5). The amount of NO in each medium was measured 8 hours after the addition of IL-1β and Pa9 in like manner with Example 4."}, "rat liver cells": {"tested_on": "rat liver cells", "test": "LDH activity of medium (cytotoxicity)", "assay_type": "cell-based", "details": "IL-1β 1 nM plus Pa5, 8 hours", "experimental": "Further, lactate dehydrogenase (LDH) activity was measured to investigate the cytotoxicity of Pa5. The lactate dehydrogenase (LDH) activity of each medium was measured using LDH Cytotoxicity Detection Kits (Takara Bio Inc.). LDH is an enzyme existing in a cell, and therefore migrates into a medium due to cell damage. Each medium was collected 8 hours after the addition of IL-1β, and Pa5 or negletein, and was used for measuring the activity. Actually, each sample (50 μl of medium) and Solution C (50 μl) in the kit were mixed and left standing at room temperature for 30 minutes, 1 M hydrochloric acid (25 μl) was added to stop the reaction, and the absorbance of the resultant at 490 nm was measured and compared with a calibration curve using LDH of known concentration to determine the LDH activity. The LDH activity of the whole cells on one dish (that is, whole-cell extract) was considered to be a positive control (positive control in FIG. 3), and was regarded as 100%. The medium was removed from each dish containing the liver cells, the cells were washed three times with phosphate buffered saline (PBS), then ultrasonically broken, and centrifuged at 10000×g for 3 minutes to then obtain a supernatant, which was used as a whole-cell extract, and the LDH activity of the cells was measured."}, "CINC-2α/β": {"tested_on": "CINC-2α/β", "test": "cytokine/chemokine array (in vitro), CINC-2α/β", "assay_type": "cell-based, rat", "details": "(+) IL-1β 1 nM, Pa5 20 μM", "experimental": "(§1) In like manner with Example 4, liver cells were isolated from male Wistar rats by a collagenase perfusion method. The isolated liver cells were suspended in a medium (similar to that in Example 4) at 1.2×10^6 cells/mL, seeded in 35 mm plastic dishes (similar to those in Example 4) (1 mL/dish), and cultured in an incubator with 5% CO2 at 37° C. After 5 hours, the medium was replaced with fresh WE free of any serum and hormone, and the cells were cultured overnight until before use of the cells for an experiment.\n(§2) On day 1 after the start of the culture, cells were subjected to replacement with fresh WE free of any serum and hormone, and IL-1β (similar to that in Example 4), and Pa5 extracted with methanol in Example 1 or Pa5′ extracted with methanol in Example 2 were added to the medium. The concentrations of IL-1β, Pa5, and Pa5′ in each medium were 1 nM, 20 μM, and 100 μM, respectively (Table 1). Then, the cells were cultured at 37° C., and the medium was collected 3 hours after the start of the culture. The collected medium was centrifuged for 1 minute at 5000 rpm to remove cellular debris, and the supernatant was used in an assay. The supernatant was preserved at −80° C. until performing the assay.\n(§3) The productions of the various inflammatory cytokines/chemokines were measured according to an accompanying protocol using Rat Cytokine Antibody Array (R&D Systems) (http://www.rndsystems.com/product_detail_objectname_ratcytokinearray.aspx) capable of detecting 29 kinds of cytokines/chemokines in Proteome Profiler® Antibody Array. In the measurement, 1 mL of the supernatant of the medium obtained as described above was used.\n(§4) In the above-described method, the 29 kinds of the cytokines/chemokines can be detected at once, and chemiluminescence on the filter of Proteome Profiler Antibody Array increases in proportion to the amount of each cytokine/chemokine. Thus, the chemiluminescence on the filter of Proteome Profiler Antibody Array was detected with LAS3000mini (GE Healthcare), subjected to densitometry analysis, and converted into a numeric value. The densitometry analysis was carried out with reference to http://www.hm6.aitai.ne.jp/˜maxcat/imageJ/technique.html#gels (the heading of “Analyzing Electrophoretic Gels”) using ImageJ software."}, "CINC-3": {"tested_on": "CINC-3", "test": "cytokine/chemokine array (in vitro), CINC-3", "assay_type": "cell-based, rat", "details": "(+) IL-1β 1 nM, Pa5 20 μM", "experimental": "as §1, §2, §3, §4"}, "Fractalkine (CX3CL1)": {"tested_on": "Fractalkine (CX3CL1)", "test": "cytokine/chemokine array (in vitro), Fractalkine", "assay_type": "cell-based, rat", "details": "(+) IL-1β 1 nM, Pa5 20 μM", "experimental": "as §1, §2, §3, §4"}, "sICAM-1 (CD54)": {"tested_on": "sICAM-1 (CD54)", "test": "cytokine/chemokine array (in vitro), sICAM-1", "assay_type": "cell-based, rat", "details": "(+) IL-1β 1 nM, Pa5 20 μM", "experimental": "as §1, §2, §3, §4"}, "MIG (CXCL9)": {"tested_on": "MIG (CXCL9)", "test": "cytokine/chemokine array (in vitro), MIG", "assay_type": "cell-based, rat", "details": "(+) IL-1β 1 nM, Pa5 20 μM", "experimental": "as §1, §2, §3, §4"}, "[2]": {"tested_on": "VEGF (VEGF-A/Vasculotropin)", "test": "cytokine/chemokine array (in vitro), VEGF", "assay_type": "cell-based, rat", "details": "(+) IL-1β 1 nM, Pa5 20 μM", "experimental": "as §1, §2, §3, §4"}, "IL-17": {"tested_on": "IL-17", "test": "cytokine/chemokine array (in vitro), IL-17", "assay_type": "cell-based, rat", "details": "(+) IL-1β 1 nM, Pa5 20 μM", "experimental": "as §1, §2, §3, §4"}, "Thymus Chemokine (CXCL7)": {"tested_on": "Thymus Chemokine (CXCL7)", "test": "cytokine/chemokine array (in vitro), Thymus Chemokine", "assay_type": "cell-based, rat", "details": "(+) IL-1β 1 nM, Pa5 20 μM", "experimental": "as §1, §2, §3, §4"}, "[3]": {"tested_on": "various inflammatory cytokines/chemokines", "test": "cytokine/chemokine arrays (in vitro), overall", "assay_type": "cell-based", "details": "rat liver cells, IL-1β 1 nM, Pa5 20 μM, 3 hours", "experimental": "as §1, with “experiment. […]” for “experiment.”\nas §3, with “In the measurement, 1 mL of the supernatant of the medium obtained as described above was used.” left out\nIn the above-described method, the 29 kinds of the cytokines/chemokines can be detected at once, and chemiluminescence on the filter of Proteome Profiler Antibody Array increases in proportion to the amount of each cytokine/chemokine. Thus, the chemiluminescence on the filter of Proteome Profiler Antibody Array was detected with LAS3000mini (GE Healthcare), subjected to densitometry analysis, and converted into a numeric value. […]"}}, "data": [{"smiles": "COc1cc2c(c(O)c1OC)OC(c1ccccc1)CC2=O", "note": "(stereo not shown) [Pa5, 8-hydroxy-6,7-dimethoxyflavanone]", "values": [{"measurement": "degree of NO production inhibitory action, comparison at the same addition concentration", "setting": "[1]; 10 μM", "result": "higher than that of negletein"}, {"measurement": "IC50", "setting": "[1]", "result": 9, "unit": "µM"}, {"measurement": "production of NO due to IL-1β", "setting": "[1]; Pa5 5, 10, 20 μM", "result": "dose-dependently inhibited"}, {"measurement": "LDH activity of medium", "setting": "rat liver cells", "result": "equivalent to that in the case of adding IL-1β"}, {"measurement": "cytotoxicity (from LDH activity)", "setting": "rat liver cells", "result": "no cytotoxicity"}, {"measurement": "CINC-2α/β (%)", "setting": "CINC-2α/β; 3 hours, (+) alone = 100.0", "result": 2.8, "unit": "%"}, {"measurement": "CINC-2α/β chemiluminescence densitometry, Average", "setting": "CINC-2α/β; medium at 3 hours", "result": 170.2}, {"measurement": "CINC-2α/β chemiluminescence densitometry, first value", "setting": "CINC-2α/β; medium at 3 hours", "result": 209.7}, {"measurement": "CINC-2α/β chemiluminescence densitometry, second value", "setting": "CINC-2α/β; medium at 3 hours", "result": 130.6}, {"measurement": "CINC-3 (%)", "setting": "CINC-3; 3 hours, (+) alone = 100.0", "result": 0.6, "unit": "%"}, {"measurement": "CINC-3 chemiluminescence densitometry, Average", "setting": "CINC-3; medium at 3 hours", "result": 17.1}, {"measurement": "CINC-3 chemiluminescence densitometry, first value", "setting": "CINC-3; medium at 3 hours", "result": 16.1}, {"measurement": "CINC-3 chemiluminescence densitometry, second value", "setting": "CINC-3; medium at 3 hours", "result": 18.1}, {"measurement": "Fractakine (CX3CL1) (%)", "setting": "Fractalkine (CX3CL1); 3 hours, (+) alone = 100.0", "result": 0.0, "unit": "%"}, {"measurement": "Fractakine (CX3CL1) chemiluminescence densitometry, Average", "setting": "Fractalkine (CX3CL1); medium at 3 hours", "result": 0.0}, {"measurement": "Fractakine (CX3CL1) chemiluminescence densitometry, first value", "setting": "Fractalkine (CX3CL1); medium at 3 hours", "result": 0.0}, {"measurement": "Fractakine (CX3CL1) chemiluminescence densitometry, second value", "setting": "Fractalkine (CX3CL1); medium at 3 hours", "result": 0.0}, {"measurement": "sICAM-1 (CD54) (%)", "setting": "sICAM-1 (CD54); 3 hours, (+) alone = 100.0", "result": 0.0, "unit": "%"}, {"measurement": "sICAM-1 (CD54) chemiluminescence densitometry, Average", "setting": "sICAM-1 (CD54); medium at 3 hours", "result": 0.0}, {"measurement": "sICAM-1 (CD54) chemiluminescence densitometry, first value", "setting": "sICAM-1 (CD54); medium at 3 hours", "result": 0.0}, {"measurement": "sICAM-1 (CD54) chemiluminescence densitometry, second value", "setting": "sICAM-1 (CD54); medium at 3 hours", "result": 0.0}, {"measurement": "MIG (CXCL9) (%)", "setting": "MIG (CXCL9); 3 hours, (+) alone = 100.0", "result": 0.0, "unit": "%"}, {"measurement": "MIG (CXCL9) chemiluminescence densitometry, Average", "setting": "MIG (CXCL9); medium at 3 hours", "result": 0.0}, {"measurement": "MIG (CXCL9) chemiluminescence densitometry, first value", "setting": "MIG (CXCL9); medium at 3 hours", "result": 0.0}, {"measurement": "MIG (CXCL9) chemiluminescence densitometry, second value", "setting": "MIG (CXCL9); medium at 3 hours", "result": 0.0}, {"measurement": "VEGF (VEGF-A/Vasculotropin) (%)", "setting": "[2]; 3 hours, (+) alone = 100.0", "result": 29.0, "unit": "%"}, {"measurement": "VEGF (VEGF-A/Vasculotropin) chemiluminescence densitometry, Average", "setting": "[2]; medium at 3 hours", "result": 236.8}, {"measurement": "VEGF (VEGF-A/Vasculotropin) chemiluminescence densitometry, first value", "setting": "[2]; medium at 3 hours", "result": 241.4}, {"measurement": "VEGF (VEGF-A/Vasculotropin) chemiluminescence densitometry, second value", "setting": "[2]; medium at 3 hours", "result": 232.3}, {"measurement": "IL-17 (%)", "setting": "IL-17; 3 hours, (+) alone = 100.0", "result": 0.0, "unit": "%"}, {"measurement": "IL-17 chemiluminescence densitometry, Average", "setting": "IL-17; medium at 3 hours", "result": 0.0}, {"measurement": "IL-17 chemiluminescence densitometry, first value", "setting": "IL-17; medium at 3 hours", "result": 0.0}, {"measurement": "IL-17 chemiluminescence densitometry, second value", "setting": "IL-17; medium at 3 hours", "result": 0.0}, {"measurement": "Thymus Chemokine (CXCL7) (%)", "setting": "Thymus Chemokine (CXCL7); 3 hours, (+) alone = 100.0", "result": 0.0, "unit": "%"}, {"measurement": "Thymus Chemokine (CXCL7) chemiluminescence densitometry, Average", "setting": "Thymus Chemokine (CXCL7); medium at 3 hours", "result": 0.0}, {"measurement": "Thymus Chemokine (CXCL7) chemiluminescence densitometry, first value", "setting": "Thymus Chemokine (CXCL7); medium at 3 hours", "result": 0.0}, {"measurement": "Thymus Chemokine (CXCL7) chemiluminescence densitometry, second value", "setting": "Thymus Chemokine (CXCL7); medium at 3 hours", "result": 0.0}, {"measurement": "induction of various cytokines/chemokines", "setting": "[3]", "result": "strongly inhibit"}]}, {"smiles": "O=c1ccc2cc(O)c(O)cc2o1", "note": "[Pa9, esculetin]", "values": [{"measurement": "IC50", "setting": "[1]", "result": 32, "unit": "µM"}, {"measurement": "production of NO due to IL-1β", "setting": "[1]; Pa9 10, 50, 100 μM", "result": "dose-dependently inhibited"}]}]}
